Measured values taken from the NIST ThermoML archive (doi:10.1016/j.fluid.2017.02.012).

Details: Liquid, Pendant drop shape

CCCCCCCCCCCCCCCCC [heptadecane] + O=C=O
Details | interfacial tension [mN/m]
313.15 K, 390 kPa | 25.11
313.15 K, 1300 kPa | 22.73
313.15 K, 2350 kPa | 20.26
313.15 K, 3500 kPa | 17.14
313.15 K, 5000 kPa | 13.27
313.15 K, 6500 kPa | 9.3
313.15 K, 8000 kPa | 5.34
313.15 K, 9000 kPa | 2.7
333.15 K, 750 kPa | 22.56
333.15 K, 1860 kPa | 20.55
333.15 K, 2830 kPa | 18.33
333.15 K, 3810 kPa | 16.6
333.15 K, 4850 kPa | 14.57
333.15 K, 5930 kPa | 12.56
333.15 K, 7090 kPa | 10.2
333.15 K, 8280 kPa | 8.07
333.15 K, 9630 kPa | 5.7
333.15 K, 10600 kPa | 4.26
353.15 K, 940 kPa | 19.98
353.15 K, 1910 kPa | 18.81
353.15 K, 3030 kPa | 17.6
353.15 K, 4000 kPa | 16.02
353.15 K, 5220 kPa | 14.29
353.15 K, 6110 kPa | 12.99
353.15 K, 7210 kPa | 11.23
353.15 K, 8580 kPa | 9.36
353.15 K, 9500 kPa | 8.34
353.15 K, 10740 kPa | 6.77
353.15 K, 12020 kPa | 5.27
353.15 K, 13180 kPa | 4.15
373.15 K, 920 kPa | 19.2
373.15 K, 2390 kPa | 17.81
373.15 K, 4000 kPa | 15.65
373.15 K, 5490 kPa | 13.83
373.15 K, 7260 kPa | 11.8
373.15 K, 9000 kPa | 9.93
373.15 K, 10800 kPa | 8.1
373.15 K, 12560 kPa | 6.21
373.15 K, 13470 kPa | 5.47
373.15 K, 14640 kPa | 4.43
393.15 K, 1190 kPa | 18.38
393.15 K, 4320 kPa | 14.69
393.15 K, 6780 kPa | 12.43
393.15 K, 10600 kPa | 8.46
393.15 K, 13920 kPa | 5.87

CCCCCCCCC [nonane] + O=C=O
Details | interfacial tension [mN/m]
313.15 K, 500 kPa | 20.26
313.15 K, 1490 kPa | 17.76
313.15 K, 2460 kPa | 15.19
313.15 K, 3500 kPa | 12.77
313.15 K, 4500 kPa | 10.11
313.15 K, 5490 kPa | 7.35
313.15 K, 6620 kPa | 4.28
313.15 K, 7290 kPa | 2.5
333.15 K, 390 kPa | 18.9
333.15 K, 1440 kPa | 16.61
333.15 K, 2400 kPa | 14.76
333.15 K, 3320 kPa | 12.98
333.15 K, 4460 kPa | 11.05
333.15 K, 5400 kPa | 9.01
333.15 K, 6220 kPa | 7.55
333.15 K, 7290 kPa | 5.61
333.15 K, 8230 kPa | 3.83
353.15 K, 1080 kPa | 16.12
353.15 K, 2100 kPa | 14.28
353.15 K, 3090 kPa | 12.81
353.15 K, 4130 kPa | 11
353.15 K, 5130 kPa | 9.64
353.15 K, 6030 kPa | 8.29
353.15 K, 6990 kPa | 6.95
353.15 K, 8000 kPa | 5.67
353.15 K, 9400 kPa | 3.85
373.15 K, 1060 kPa | 14.6
373.15 K, 2110 kPa | 13.15
373.15 K, 3060 kPa | 11.85
373.15 K, 4190 kPa | 10.43
373.15 K, 5200 kPa | 9.22
373.15 K, 6210 kPa | 7.93
373.15 K, 7000 kPa | 7.04
373.15 K, 7990 kPa | 6.08
373.15 K, 9340 kPa | 4.61
373.15 K, 10460 kPa | 3.58
393.15 K, 940 kPa | 13.32
393.15 K, 3080 kPa | 10.78
393.15 K, 5700 kPa | 8.17
393.15 K, 9300 kPa | 4.7
393.15 K, 11410 kPa | 2.98

CCCCCCCCCCC [undecane] + O=C=O
Details | interfacial tension [mN/m]
313.15 K, 340 kPa | 22.19
313.15 K, 1410 kPa | 19.54
313.15 K, 2530 kPa | 16.91
313.15 K, 3590 kPa | 14.36
313.15 K, 4700 kPa | 11.15
313.15 K, 5630 kPa | 8.47
313.15 K, 6540 kPa | 5.82
313.15 K, 7100 kPa | 3.75
333.15 K, 350 kPa | 20.59
333.15 K, 1700 kPa | 17.96
333.15 K, 3240 kPa | 14.87
333.15 K, 4730 kPa | 12.15
333.15 K, 5810 kPa | 9.86
333.15 K, 7190 kPa | 7.45
333.15 K, 8000 kPa | 5.82
333.15 K, 8910 kPa | 4.12
353.15 K, 440 kPa | 18.64
353.15 K, 1800 kPa | 16.41
353.15 K, 3430 kPa | 14.14
353.15 K, 4930 kPa | 11.74
353.15 K, 6480 kPa | 9.53
353.15 K, 7890 kPa | 7.53
353.15 K, 8940 kPa | 5.99
353.15 K, 10190 kPa | 4.39
373.15 K, 410 kPa | 17.05
373.15 K, 1880 kPa | 15.22
373.15 K, 3100 kPa | 13.86
373.15 K, 4410 kPa | 12.26
373.15 K, 5910 kPa | 10.19
373.15 K, 7020 kPa | 8.84
373.15 K, 8600 kPa | 7.05
373.15 K, 9900 kPa | 5.73
373.15 K, 11680 kPa | 3.99
393.15 K, 530 kPa | 15.69
393.15 K, 3300 kPa | 12.38
393.15 K, 5820 kPa | 9.76
393.15 K, 9300 kPa | 6.53
393.15 K, 12810 kPa | 3.55

CCCCCCCCCCCCCCC [pentadecane] + O=C=O
Details | interfacial tension [mN/m]
313.15 K, 430 kPa | 21.65
313.15 K, 1100 kPa | 20.48
313.15 K, 2090 kPa | 18.38
313.15 K, 3090 kPa | 16.15
313.15 K, 4080 kPa | 14.04
313.15 K, 5090 kPa | 11.41
313.15 K, 6090 kPa | 8.91
313.15 K, 6890 kPa | 6.25
313.15 K, 8060 kPa | 2.69
333.15 K, 360 kPa | 20.84
333.15 K, 1380 kPa | 19.61
333.15 K, 2390 kPa | 17.57
333.15 K, 3490 kPa | 15.7
333.15 K, 4330 kPa | 14.41
333.15 K, 5290 kPa | 12.81
333.15 K, 5990 kPa | 11.75
333.15 K, 7290 kPa | 9.17
333.15 K, 8400 kPa | 6.86
333.15 K, 9860 kPa | 4.22
353.15 K, 580 kPa | 19.83
353.15 K, 1630 kPa | 18.11
353.15 K, 2790 kPa | 17.01
353.15 K, 3610 kPa | 15.63
353.15 K, 4630 kPa | 14.2
353.15 K, 5700 kPa | 12.85
353.15 K, 6630 kPa | 11.53
353.15 K, 7720 kPa | 9.79
353.15 K, 8560 kPa | 8.69
353.15 K, 9490 kPa | 7.32
353.15 K, 10730 kPa | 5.87
353.15 K, 11560 kPa | 4.82
353.15 K, 12000 kPa | 4.24
373.15 K, 1080 kPa | 18.21
373.15 K, 2060 kPa | 16.61
373.15 K, 3240 kPa | 15.25
373.15 K, 4280 kPa | 14.53
373.15 K, 5390 kPa | 13.01
373.15 K, 6240 kPa | 12.08
373.15 K, 7340 kPa | 10.81
373.15 K, 8340 kPa | 9.6
373.15 K, 9400 kPa | 8.42
373.15 K, 10490 kPa | 7.37
373.15 K, 12060 kPa | 5.74
373.15 K, 13190 kPa | 4.64
373.15 K, 13960 kPa | 4.06
393.15 K, 3280 kPa | 14.72
393.15 K, 5680 kPa | 12.36
393.15 K, 8600 kPa | 9.58
393.15 K, 11400 kPa | 6.86
393.15 K, 14720 kPa | 4.22

CCCCCCCCCCCCC [tridecane] + O=C=O
Details | interfacial tension [mN/m]
313.15 K, 550 kPa | 22.3
313.15 K, 2100 kPa | 18.58
313.15 K, 3240 kPa | 15.83
313.15 K, 4300 kPa | 13.06
313.15 K, 5300 kPa | 10.43
313.15 K, 5940 kPa | 8.57
313.15 K, 7490 kPa | 3.8
333.15 K, 330 kPa | 21.41
333.15 K, 1360 kPa | 19.62
333.15 K, 2440 kPa | 17.54
333.15 K, 3580 kPa | 15.34
333.15 K, 5410 kPa | 11.87
333.15 K, 5930 kPa | 10.74
333.15 K, 6830 kPa | 9.08
333.15 K, 8000 kPa | 6.91
333.15 K, 8780 kPa | 5.38
333.15 K, 9410 kPa | 4.25
333.15 K, 10010 kPa | 3.24
353.15 K, 440 kPa | 19.97
353.15 K, 1760 kPa | 17.82
353.15 K, 3190 kPa | 15.75
353.15 K, 4830 kPa | 13.15
353.15 K, 5700 kPa | 11.84
353.15 K, 6050 kPa | 11.5
353.15 K, 7500 kPa | 9.24
353.15 K, 8990 kPa | 7.3
353.15 K, 10030 kPa | 5.75
353.15 K, 10880 kPa | 4.76
353.15 K, 11770 kPa | 3.76
373.15 K, 540 kPa | 18.67
373.15 K, 2380 kPa | 16.03
373.15 K, 4400 kPa | 13.13
373.15 K, 5790 kPa | 11.68
373.15 K, 8100 kPa | 9.03
373.15 K, 9910 kPa | 6.93
373.15 K, 12260 kPa | 4.57
373.15 K, 13710 kPa | 3.32
393.15 K, 410 kPa | 17.04
393.15 K, 4630 kPa | 12.6
393.15 K, 8730 kPa | 8.27
393.15 K, 13580 kPa | 4.32
